# Tests used:
# C57BL/6 mice = experiment: Intra-hippocampal Aβ40-Q22 injection, immunohistochemistry; assay type: in vivo, mouse
# Experimental: Six months old C57BL/6 mice were anesthetized with a mixture of ketamine and xylazine (120 and 10 mg/Kg respectively) i.p. and fixed to a stereotaxic frame (David Kopf Instruments, Tujunga, CaliforniaKopf). The body temperature was maintained stable with the use of a heating pad (Harvard Apparatus, Holliston, Mass.) for the total time of the surgery. A volume of 1 μl of a 10 μM fresh solution of Aβ40-Q22—chosen for its propensity to form toxic oligomers, and not fibrils, in the first few hours after solubilization—(Fossati et al., 2010) in PBS, or the vehicle for control mice, was injected in the hippocampus (Coordinates: AP=−2.7, L=−3.0 and H=−4.0, according to the Atlas of Paxinos and Franklin) at a flow rate of 0.1 μl/min. The needle (Hamilton 701 RN 10 μl syringe, RN needle 30/2″/3S) was left in place for two minutes and then slowly withdrawn. In the cases in which MTZ treatment was administered, mice were injected intraperitoneally with a solution of MTZ (20 mg/kg) 1 h before the Aβ40-Q22 intrahippocampal injection. At the selected time after injections, the animals were sacrificed by trans-cardiac perfusion (medium flow pump, Fisher Scientific 13-876-2, 10 ml/min flow rate) with PBS for 2 minutes followed by 4% paraphormaldehyde for 5 minutes. Brains were then removed from the skull and postfixed in 4% paraphormaldehyde for 2 h at 4° C. […] Brains were then washed in PBS, assembled in a plastic mold with Tissue-Tek O.C.T. compound (Fisher Scientific), and frozen with a mixture of liquid nitrogen and isopenthanol. Serial cryostat sections of 8 μm thickness were collected on positively charged microscope slides (Fisher Scientific) and stored at −80° C. until further immunohistochemical analysis.
# For immunohistochemical staining, slices were warmed to RT for 5′ prior to use, rinsed in PBS and blocked with Mouse on Mouse (MOM) blocking reagent (2 drops in 2.5 ml of PBS, Vector Laboratories, Burlingame, Calif.) for 20 minutes. Incubation with the rabbit monoclonal antibody against active caspase-3 (Cell Signaling Technology) was performed overnight at 4° C. in PBS containing 0.1% triton X-100 and 5 mg/ml BSA. The day after, the sections were washed three times with PBS and incubated in Alexa Fluor 488- or 633-conjugated anti-rabbit IgG (Life Technologies; 1:200 in PBST with 5 mg/ml BSA; 1 h at RT), followed by primary anti-Aβ 6E10 (1:200 in PBS+MOM for 2 hours at RT), and by secondary Alexa Fluor 568 anti-mouse IgG. Finally, the slices were washed and the DNA counterstained with TO-PRO (Life Technologies) 1:1000 for 10 min, or with NeuN green neuronal staining (1:100 in PBS for 1 hour, Millipore, Temecula, Calif.). For staining of active microglial cells, tissue sections were incubated with anti IBA1 goat antibody (Abcam, Cambridge, Mass.) 1:200 in PBS containing 0.1% Triton and 5 mg/ml BSA for 1 hour, followed by Alexa Fluor 488 anti-goat IgG (1 hour). After washing, slides were mounted with an aqueous mounting medium (Vector Laboratories). Images were acquired in a Zeiss LSM 510 confocal microscope using 40× or 100× oil lens and processed using Image J and Adobe Photoshop. Images were acquired maintaining constant exposure for all samples across single experiments. For quantifications, stained brain slices corresponding to the injection site area of 3 or more animals were quantified with Image J. The total area of NeuN, caspase 3, Aβ and IBA1 positive cells was quantified and compared between different treatments.
# [1] = test system: mitochondria isolated from ECs (D3 cells); experiment: Mitochondrial H2O2 production (Amplex Red) after Aβ challenge; assay type: cell-based, human; conditions: ATZ at lower concentrations than MTZ
# Experimental: Cells were plated on 6-wells plates and treated with the peptides and/or drugs for the experimental times. Plates were centrifuged for 10 min at 1.000 RPM and washed twice with PBS 1×. After that, 500 μL of homogenization buffer (75 mM sucrose, 225 mM mannitol, 5 mM Tris-HCl pH=7.4, 1 mM PMSF and protease inhibitor cocktail) was added. Cells were scraped in this buffer, collected in glass tubes and grinded exactly 80 times with a pellet pestle, keeping everything always on ice. Cells were then centrifuged at 2.800 RPM for 5 min at 4° C. The supernatant was collected and centrifuged again at 2.800 RPM for 5 min at 4° C. The supernatant was again collected and centrifuged at 10.500 RPM for another 5 min at 4° C. After this, the supernatant was discarded and the pellet was re-suspended in 100 μL of homogenization buffer. The samples were centrifuged again at 10.500 RPM for 10 min at 4° C., the supernatant was discarded and the pellets (mitochondrial fractions) were re-suspended on 50 μL of homogenization buffer. […] After that, mitochondrial fractions containing equal amounts of mitochondrial proteins were placed on 96-wells microplate absorbance microtiter (ThermoFisher, Waltham, Mass., US) and the AmplexRed assay was ran, following the instructions provided by the manufacturer. Absorbance was measured by using a FlexStation (Molecular Devices, Sunnyvalem Calif., US).
# [2] = MTZ IP one hour before peptide injection
SMILES,"activation of caspase-3 induced by Aβ in CA1 neurons (C57BL/6 mice; 20 mg/Kg MTZ IP 1 hour prior to Aβ40-Q22 injection, sacrificed 4 hours after)","Aβ staining in the injected hemisphere (C57BL/6 mice; Aβ in the presence or absence of MTZ, FIG. 9A)",active-caspase 3 staining in IBA1- and Aβ-positive microglia (C57BL/6 mice; MTZ IP before Aβ injection),caspase activation in the vicinity of the injection site (C57BL/6 mice; [2]),loss of NeuN immunoreactivity in the vicinity of the injection site (C57BL/6 mice; [2]),brain entry after systemic administration (C57BL/6 mice; inferred from efficacy after IP dosing),"inhibition of H2O2 production, compared with MTZ [1]"
"CC(=O)/N=c1/sc(S(N)(=O)=O)nn1C [MTZ, methazolamide]",prevented,similarly increased,notably lower,significantly reduced,significantly reduced,can enter the mouse brain,
"CC(=O)Nc1nnc(S(N)(=O)=O)s1 [ATZ, acetazolamide]",,,,,,,more dramatic effect on the inhibition of H2O2 production

# Reference: patent publication US10780094B2, “Use of carbonic anhydrase inhibitors for treatment of neurological and psychiatric disorders” (New York University, priority 2016, dated 2020)
